Measurements taken from patent publication US7615651B2, “Diaryl, dipyridinyl and aryl-pyridinyl derivatives and uses thereof” (Pfizer Inc., priority 2006, dated 2009).
Where two headings read alike, the source gives them in different places.

What was measured:
Assay type in all cases: biochemical
opioid receptor mu = target: T1, opioid receptor mu (Homo sapiens, UniProt P35372); assay: GTPγ[35S] binding assay, antagonism of endorphin
T1 construct: expressed in transfected cells
Description: (§1) Membranes were prepared from cells as described (Bass et al, 1996). GTPγ[5S] binding assays were performed in a 96 well FlashPlate™ format in duplicate using […] GTPγ[^35S] and 5 μg membrane per well in assay buffer composed of 50 mM Tris HCl, pH 7.4, 5 mM MgCl2, 1 mM EDTA, 100 mM NaCl, 30 μM GDP, 0.1% bovine serum albumin and the following protease inhibitors: 100 μg/ml bacitracin, 100 μg/ml benzamidine, 5 μg/ml aprotinin, 5 μg/ml leupeptin. The assay mix was then incubated at 30° C. with increasing concentrations of antagonist (10^−10 M to 10^−5 M) for 10 minutes and challenged with the agonists BW-373U86 (1 nM), dynorphin-A (10 nM), […] (1 μM) for opioid receptors delta, kappa, and mu, respectively. The assays were performed at 30° C. for one hour. The FlashPlates were then centrifuged at 2000×g for 10 minutes. Stimulation of GTPγ[^35S] binding was then quantified using a Wallac Microbeta and Ki calculations were done using Prism™ by Graphpad.

opioid receptor delta = target: T2, opioid receptor delta (Homo sapiens, UniProt P41143); assay: GTPγ[35S] binding assay, antagonism of BW-373U86
T2 construct: expressed in transfected cells
T2 sequence (P41143 whole entry): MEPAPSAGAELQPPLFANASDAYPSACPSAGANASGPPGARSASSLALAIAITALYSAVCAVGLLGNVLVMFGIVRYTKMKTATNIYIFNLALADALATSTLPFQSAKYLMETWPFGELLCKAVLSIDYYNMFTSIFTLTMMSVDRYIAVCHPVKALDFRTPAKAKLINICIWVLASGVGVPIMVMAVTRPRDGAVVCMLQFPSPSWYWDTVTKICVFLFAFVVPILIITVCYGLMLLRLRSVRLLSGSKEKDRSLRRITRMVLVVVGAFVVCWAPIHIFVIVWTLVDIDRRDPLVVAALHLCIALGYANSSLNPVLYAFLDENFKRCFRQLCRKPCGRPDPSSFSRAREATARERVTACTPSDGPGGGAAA
Description: as §1

opioid receptor kappa = target: T3, opioid receptor kappa (Homo sapiens, UniProt P41145); assay: GTPγ[35S] binding assay, antagonism of dynorphin-A
T3 construct: expressed in transfected cells
T3 sequence (P41145 whole entry): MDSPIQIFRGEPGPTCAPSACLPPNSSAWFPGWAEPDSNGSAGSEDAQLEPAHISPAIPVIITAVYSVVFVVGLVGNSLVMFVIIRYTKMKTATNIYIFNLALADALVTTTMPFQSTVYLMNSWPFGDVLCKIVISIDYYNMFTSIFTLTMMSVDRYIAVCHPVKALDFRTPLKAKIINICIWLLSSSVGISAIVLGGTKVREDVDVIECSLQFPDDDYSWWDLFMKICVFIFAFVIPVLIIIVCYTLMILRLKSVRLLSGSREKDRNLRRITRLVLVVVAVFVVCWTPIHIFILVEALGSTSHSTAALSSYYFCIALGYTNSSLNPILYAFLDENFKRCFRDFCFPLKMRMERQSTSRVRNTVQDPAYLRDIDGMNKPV
Description: as §1

[1] = read-out: Mu functional (GTPγ[35S] binding Ki)
[2] = read-out: Delta functional (GTPγ[35S] binding Ki)
[3] = read-out: Kappa functional (GTPγ[35S] binding Ki)
[4] = read-out: Mu functional Ki (GTPγ[35S] binding)
[5] = read-out: Delta functional Ki (GTPγ[35S] binding)
[6] = read-out: Kappa functional Ki (GTPγ[35S] binding)
[7] = average Ki, antagonism of endorphin (1 μM) at mu opioid receptor membranes, read-out: Mu functional Ki (GTPγ[35S] binding)
[8] = average Ki, antagonism of BW-373U86 (1 nM) at delta opioid receptor membranes, read-out: Delta functional Ki (GTPγ[35S] binding)
[9] = average Ki, antagonism of dynorphin-A (10 nM) at kappa opioid receptor membranes, read-out: Kappa functional Ki (GTPγ[35S] binding)

T1 sequence (P35372 whole entry): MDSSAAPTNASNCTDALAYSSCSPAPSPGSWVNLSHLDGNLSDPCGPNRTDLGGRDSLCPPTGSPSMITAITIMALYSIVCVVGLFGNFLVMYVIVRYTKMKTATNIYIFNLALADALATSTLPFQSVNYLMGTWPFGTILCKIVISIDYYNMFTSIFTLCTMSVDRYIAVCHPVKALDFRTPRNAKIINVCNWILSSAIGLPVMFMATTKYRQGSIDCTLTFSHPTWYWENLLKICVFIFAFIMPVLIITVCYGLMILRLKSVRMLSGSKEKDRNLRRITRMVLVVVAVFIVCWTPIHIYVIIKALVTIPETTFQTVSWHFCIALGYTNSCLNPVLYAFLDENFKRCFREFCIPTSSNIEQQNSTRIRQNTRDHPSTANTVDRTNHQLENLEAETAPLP

Row | SMILES | Ki (opioid receptor mu; [1]) [nM] | Ki (opioid receptor delta; [2]) [nM] | Ki (opioid receptor kappa; [3]) [nM] | Ki (opioid receptor mu; [4]) [nM] | Ki (opioid receptor delta; [5]) [nM] | Ki (opioid receptor kappa; [6]) [nM] | also measured
1 | Cc1cc(C(N)=O)ccc1-c1ccc(CNCCOc2ccccc2)cc1 [4B-16] | 2.82 | 0.751 | 7.65 |  |  |  | 
2 | Cc1cc(C(N)=O)ccc1-c1ccc(CNCc2cccc(F)c2)cc1 [4B-17] | 2.56 | 1.13 | 1.21 |  |  |  | 
3 | Cc1cc(C(N)=O)ccc1-c1ccc(CNCc2ccc3c(c2)CC(C)(C)O3)cc1 [4B-18] | 5.72 | 2.46 | 18.7 |  |  |  | 
4 | Cc1cc(C(N)=O)ccc1-c1ccc(CNC(C)(C)c2ccccc2)cc1 [4B-19] | 126 | 19.5 | 23.4 |  |  |  | 
5 | Cc1cc(C(N)=O)ccc1-c1ccc(CNCc2ccc3c(c2)CCO3)cc1 [4B-20] | 7.1 | 4.21 | 34.5 |  |  |  | 
6 | Cc1cc(C(N)=O)ccc1-c1ccc(CNC2CCc3ccccc32)cc1 (stereo not drawn) [4B-21] | 1.5 | 1.25 | 0.872 |  |  |  | 
7 | Cc1cc(C(N)=O)ccc1-c1ccc(CNC2CCOc3c(C)cccc32)cc1 (stereo not drawn) [4B-22] | 7.56 | 5.1 | 4.92 |  |  |  | 
8 | Cc1cc(C(N)=O)ccc1-c1ccc(CNC2(c3cccc(Cl)c3)CC2)cc1 [4B-23] | 266 | 46.3 | 14.2 |  |  |  | 
9 | Cc1cc(C(N)=O)ccc1-c1ccc(CNC2(c3ccccc3)CC2)cc1 [4B-24] | 1290 | 22.7 | 400 |  |  |  | 
10 | Cc1cc(C(N)=O)ccc1-c1ccc(CNC(C)(C)c2cccc(Cl)c2)cc1 [4B-25] | 37.6 | 22.6 | 6.11 |  |  |  | 
11 | Cc1cc(C(N)=O)ccc1-c1ccc(CNCc2ccccc2F)cc1 [4B-26] | 4.55 | 5.72 | 3.32 |  |  |  | 
12 | Cc1cc(C(N)=O)ccc1-c1ccc(CNC(C)c2ccc3ccccc3c2)cc1 (stereo not drawn) [4B-27] | 14.3 | 2.98 | 2.86 |  |  |  | 
13 | Cc1cc(C(N)=O)ccc1-c1ccc(CN[C@@H]2CCCc3ccccc32)cc1 [4B-28] | 26.1 | 26.3 | 4.12 |  |  |  | 
14 | CC(C)CCNCc1ccc(-c2ccc(C(N)=O)cc2Cl)cc1 [4B-29] | 16.2 | 6.12 | 6.1 |  |  |  | 
15 | NC(=O)c1ccc(-c2ccc(CNC3Cc4ccccc4C3)cc2)c(Cl)c1 [4B-30] | 0.41 | 0.378 | 0.842 |  |  |  | 
16 | Cc1cc(C(N)=O)ccc1-c1ccc(CNCC2Cc3ccccc3O2)cc1 (stereo not drawn) [4B-31] | 4.05 | 1.09 | 3.71 |  |  |  | 
17 | Cc1cc(C(N)=O)cc(C)c1-c1ccc(CNC2Cc3ccccc3C2)cc1 [4B-32] | 0.0492 | 0.0696 | 0.14 |  |  |  | 
18 | Cc1cc(C(N)=O)ccc1-c1ccc(CN[C@@H]2CCc3ccccc32)cc1 [4B-33] | 4.95 | 2.49 | 0.911 |  |  |  | 
19 | Cc1cc(C(N)=O)ccc1-c1ccc(CN[C@H]2CCc3ccccc32)cc1 [4B-34] |  |  |  | 1.08 | 1.09 | 0.512 | 
20 | Cc1cc(C(N)=O)ccc1-c1ccc(CNCC2Cc3ccccc3C2)cc1 [4B-35] |  |  |  | 1.32 | 0.687 | 7.13 | 

Row | SMILES | Ki (opioid receptor mu; [1]) [nM] | Ki (opioid receptor delta; [2]) [nM] | Ki (opioid receptor kappa; [3]) [nM] | Ki (opioid receptor mu; [4]) [nM] | Ki (opioid receptor delta; [5]) [nM] | Ki (opioid receptor kappa; [6]) [nM] | also measured
21 | Cc1cc(C(N)=O)ccc1-c1ccc(CNCC2CCc3ccccc3O2)cc1 (stereo not drawn) [4B-36] |  |  |  | 1.45 | 0.453 | 6.5 | 
22 | NC(=O)c1ccc(-c2ccc(CNCCC3CCOCC3)cc2)c(Cl)c1 [4B-37] |  |  |  | 13.7 | 60.3 | 4.61 | 
23 | NC(=O)c1ccc(-c2ccc(CN[C@H]3CCc4ccccc43)cc2)c(Cl)c1 [4B-38] |  |  |  | 3.33 | 5.59 | 1.14 | 
24 | NC(=O)c1ccc(-c2ccc(CNCCC3CCCC3)cc2)c(Cl)c1 [4B-39] |  |  |  | 1.87 | 0.612 | 1.28 | 
25 | Cc1cc(C(N)=O)ccc1-c1ccc(CNCC2CCOCC2)cc1 [4B-40] |  |  |  | 48.3 | 20.4 | 9.05 | 
26 | Cc1cc(C(N)=O)ccc1-c1ccc(CN[C@H](C)c2ccccc2)cc1 [4B-41] |  |  |  | 61.4 | 14.1 | 13.5 | 
27 | Cc1cc(C(N)=O)ccc1-c1ccc(CN[C@@H](C)c2ccccc2)cc1 [4B-42] |  |  |  | 65.4 | 22.2 | 6.19 | 
28 | Cc1cc(C(N)=O)ccc1-c1ccc(CNCc2cccnc2)cc1 [4B-43] |  |  |  | 70.2 | 10.6 | 8.95 | 
29 | Cc1cc(C(N)=O)ccc1-c1ccc(CNCc2ccccn2)cc1 [4B-44] |  |  |  | 61.7 | 26.1 | 25.7 | 
30 | CC(C)CCNCc1ccc(-c2ccc(C(N)=O)cc2OCc2ccccc2)cc1 [4B-45] |  |  |  | 40.2 | 44.6 | 9.84 | 
31 | CC(C)CCNCc1ccc(-c2ccc(C(N)=O)cc2O)cc1 [4B-47] |  |  |  | 549 | 543 | 80.6 | 
32 | CCc1cc(C(N)=O)ccc1-c1ccc(CNCCC(C)C)cc1 [4B-48] |  |  |  | 12 | 16.1 | 13.9 | 
33 | Cc1cc(C(N)=O)cc(Cl)c1-c1ccc(CNCCC(C)C)cc1 [4B-49] |  |  |  | 2.72 | 6.66 | 2.31 | 
34 | Cc1cc(C(N)=O)ccc1-c1cc(F)c(CNCCC2CCOCC2)c(F)c1 [4B-50] |  |  |  |  |  |  | Ki (opioid receptor mu; [7]): 1.45 nM; Ki (opioid receptor delta; [8]): 0.135 nM; Ki (opioid receptor kappa; [9]): 0.948 nM
35 | Cc1cc(C(N)=O)ccc1-c1cc(F)c(CNCCC2CCOCC2)c(F)c1 [4B-51] |  |  |  | 2.16 | 0.707 | 1.95 | 
36 | CC[C@@H](NCc1c(F)cc(-c2ccc(C(N)=O)cc2C)cc1F)c1ccccn1 [4B-52] |  |  |  | 138 | 15.4 | 7.01 | 
37 | Cc1cc(C(N)=O)ccc1-c1cc(F)c(CN[C@H](C)c2ccccn2)c(F)c1 [4B-53] |  |  |  | 92.7 | 3.74 | 43.1 | 
38 | Cc1cc(C(N)=O)ccc1-c1cc(F)c(CNC2CCCC2)c(F)c1 [4B-54] |  |  |  | 37 | 14.5 | 15.4 | 
39 | Cc1cc(C(N)=O)ccc1-c1cc(F)c(CNC[C@@H]2CCCO2)c(F)c1 [4B-55] |  |  |  | 30.7 | 19 | 8.55 | 
40 | Cc1cc(C(N)=O)ccc1-c1ccc(CNCC2CCOCC2)c(F)c1 [4B-56] |  |  |  | 36.8 | 8.44 | 9.04 | 

Row | SMILES | Ki (opioid receptor mu; [1]) [nM] | Ki (opioid receptor delta; [2]) [nM] | Ki (opioid receptor kappa; [3]) [nM] | Ki (opioid receptor mu; [4]) [nM] | Ki (opioid receptor delta; [5]) [nM] | Ki (opioid receptor kappa; [6]) [nM] | also measured
41 | NC(=O)c1ccc(-c2cc(F)c(CNCCC3CCOCC3)c(F)c2)c(Cl)c1 [4B-57] |  |  |  | 12.7 | 168 | 4.58 | 
42 | NC(=O)c1ccc(-c2ccc(CNCCC3CCOCC3)c(F)c2)c(Cl)c1 [4B-58] |  |  |  | 7.3 | 4.02 | 1.77 | 
43 | Cc1cc(C(N)=O)ccc1-c1cc(F)c(CNCC2CCOCC2)c(F)c1 [4B-59] |  |  |  | 33.3 | 19.1 | 9.47 | 
44 | Cc1cc(C(N)=O)ccc1-c1ccc(CNCCC2CCOCC2)c(F)c1 [4B-60] |  |  |  | 3.9 | 1.43 | 1.49 | 
45 | CC(C)CCNCc1ccc(-c2ccc(C(N)=O)cc2Cl)c(F)c1 [4B-61] |  |  |  | 25.6 | 12.6 | 4.92 | 
46 | Cc1cc(CNCCC(C)C)ccc1-c1ccc(C(N)=O)cc1Cl [4B-62] |  |  |  | 6.4 | 3.58 | 2.56 | 
47 | NC(=O)c1ccc(-c2ccc(CNC3Cc4ccccc4C3)c(F)c2)c(Cl)c1 [4B-63] |  |  |  | 0.226 | 0.629 | 0.633 | 
48 | CC(C)CCNCc1ccc(-c2ccc(C(N)=O)cc2Cl)cc1F [4B-64] |  |  |  | 12.1 | 5.64 | 3.97 | 
49 | CC(C)CCNCc1ccc(-c2ccc(C(N)=O)cc2Cl)cc1Cl [4B-65] |  |  |  | 10.8 | 4.79 | 2.15 | 
50 | CC(C)CCNCc1ccc(-c2ccc(C(N)=O)cc2Cl)c(Cl)c1 [4B-66] |  |  |  | 7.83 | 7.52 | 2.52 | 
51 | NC(=O)c1ccc(-c2ccc(CNCCC3CCOCC3)cc2Cl)c(Cl)c1 [4B-67] |  |  |  | 7.22 | 2.95 | 3.62 | 
52 | NC(=O)c1ccc(-c2ccc(CNC3Cc4ccccc4C3)cc2Cl)c(Cl)c1 [4B-68] |  |  |  |  |  |  | Ki (opioid receptor mu; [7]): 0.24 nM; Ki (opioid receptor delta; [8]): 0.724 nM; Ki (opioid receptor kappa; [9]): 0.759 nM
53 | NC(=O)c1ccc(-c2ccc(CNCCC3CCCCO3)cc2Cl)c(Cl)c1 (stereo not drawn) [4B-69] |  |  |  | 2.78 | 4.09 | 4.54 | 
54 | Cc1cc(CNCCC2CCOCC2)ccc1-c1ccc(C(N)=O)cc1C [4B-70] |  |  |  | 2 | 1.04 | 2.48 | 
55 | Cc1cc(CNCC2CCOCC2)ccc1-c1ccc(C(N)=O)cc1C [4B-71] |  |  |  | 8.37 | 6.2 | 6.91 | 
56 | Cc1cc(CNCC2CCCO2)ccc1-c1ccc(C(N)=O)cc1C (stereo not drawn) [4B-72] |  |  |  | 9.83 | 13 | 5.44 | 
57 | Cc1cc(CNC2Cc3ccccc3C2)ccc1-c1ccc(C(N)=O)cc1C [4B-73] |  |  |  | 0.0298 | 0.135 | 0.318 | 
58 | Cc1cc(C(N)=O)ccc1-c1cc(F)c(CNCCC(C)C)cc1F [4B-74] |  |  |  | 4.37 | 4.8 | 4.45 | 
